US9265253B2, “Use of macrocyclic picolinamides as fungicides” (DOW AGROSCIENCES LLC, priority 2013, dated 2016)

What follows are compounds tested on Mycosphaerella graminicola; Anamorph: Septoria tritici (assay: Leaf Blotch of Wheat (SEPTTR) disease control). Details: Zymoseptoria tritici, 24 h, 1 Day Protectant, rate 100 ppm; read-out: SEPTTR 1 DP disease control.
Assay type: in vivo
Description: (§1) Technical grades of materials were dissolved in acetone, which were then mixed with nine volumes of water containing 110 ppm Triton X-100. The fungicide solutions were applied onto wheat seedlings using an automated booth sprayer to run-off. All sprayed plants were allowed to air dry prior to further handling. All fungicides were evaluated using the aforementioned method for their activity vs. all target diseases. Wheat leaf blotch and brown rust activity were also evaluated using track spray applications, in which case the fungicides were formulated as EC formulations, containing 0.1% Trycol 5941 in the spray solutions. Wheat plants (variety Yuma) were grown from seed in a greenhouse in 50% mineral soil/50% soil-less Metro mix until the first leaf was fully emerged, with 7-10 seedlings per pot. These plants were inoculated with an aqueous spore suspension of Septoria tritici either prior to or after fungicide treatments. After inoculation the plants were kept in 100% relative humidity (one day in a dark dew chamber followed by two to three days in a lighted dew chamber at 20° C.) to permit spores to germinate and infect the leaf. The plants were then transferred to a greenhouse set at 20° C. for disease to develop. When disease symptoms were fully expressed on the 1st leaves of untreated plants, infection levels were assessed on a scale of 0 to 100 percent disease severity. Percent disease control was calculated using the ratio of disease severity on treated plants relative to untreated plants.

Row | Compound | pest or weed control at 100 ppm [%]
1 | COc1ccnc(C(=O)N[C@H]2CCC[C@H](C)[C@@H](OCc3ccccc3)[C@H](C)OC2=O)c1OC(C)=O [Compound F77] | 80 to 100
2 | COc1ccnc(C(=O)N[C@H]2CCC[C@H](CCSC)[C@@H](OCC(C)C)[C@H](C)OC2=O)c1O [Compound F46] | 0 to 80
3 | COc1ccnc(C(=O)N[C@H]2CCC[C@H](CC3CCCC3)[C@@H](Oc3ccccc3)[C@H](C)OC2=O)c1O [Compound F27] | 80 to 100
4 | COc1ccnc(C(=O)N[C@H]2CCC[C@H](Cc3ccccc3)[C@@H](OC3CCCC3)[C@H](C)OC2=O)c1O [Compound F22] | 80 to 100
5 | COc1ccnc(C(=O)N[C@H]2CCC[C@H](CCOCC3CC3)[C@@H](OCC3CC3)[C@H](C)OC2=O)c1OC(C)=O [Compound F83] | 80 to 100
6 | COc1ccnc(C(=O)N[C@H]2CCC[C@H](CCOCC3CC3)[C@@H](OCC3CC3)[C@H](C)OC2=O)c1OCOC(=O)C(C)C [Compound F156] | 0 to 80
7 | CC[C@H]1CCC[C@H](NC(=O)c2nccc(OC)c2OCOC(C)=O)C(=O)O[C@@H](C)[C@@H]1Oc1ccccc1 [Compound F136] | 80 to 100
8 | COc1ccnc(C(=O)N[C@H]2CCC[C@H](CCC(C)C)[C@@H](OCC(C)C)[C@H](C)OC2=O)c1OCOC(=O)C(C)C [Compound F148] | 80 to 100
9 | COc1ccnc(C(=O)N[C@H]2CCC[C@H](CCC(C)C)[C@@H](OC(=O)C3CCCC3)[C@H](C)OC2=O)c1O [Compound F8] | 80 to 100

Same assay, conditions: Zymoseptoria tritici, 24 h, 1 Day Protectant, rate 121.5 g/H; read-out: SEPTTR 1 DP disease control

Row | Compound | pest or weed control at 121.5 g/ha [%]
10 | COc1ccnc(C(=O)N[C@H]2CCC[C@H](C)[C@@H](OCc3ccccc3)[C@H](C)OC2=O)c1OC(C)=O [Compound F77] | 80 to 100
11 | COc1ccnc(C(=O)N[C@H]2CCC[C@H](CCOCC3CC3)[C@@H](OCC3CC3)[C@H](C)OC2=O)c1OC(C)=O [Compound F83] | 0 to 80
12 | COc1ccnc(C(=O)N[C@H]2CCC[C@H](CCOCC3CC3)[C@@H](OCC3CC3)[C@H](C)OC2=O)c1OCOC(=O)C(C)C [Compound F156] | 0 to 80
13 | CC[C@H]1CCC[C@H](NC(=O)c2nccc(OC)c2OCOC(C)=O)C(=O)O[C@@H](C)[C@@H]1Oc1ccccc1 [Compound F136] | 80 to 100
14 | COc1ccnc(C(=O)N[C@H]2CCC[C@H](CCC(C)C)[C@@H](OCC(C)C)[C@H](C)OC2=O)c1OCOC(=O)C(C)C [Compound F148] | 80 to 100

Same assay, conditions: Zymoseptoria tritici, 72 h, 3 Day Curative, rate 100 ppm; read-out: SEPTTR 3 DC disease control

Row | Compound | pest or weed control at 100 ppm [%]
15 | COc1ccnc(C(=O)N[C@H]2CCC[C@H](C)[C@@H](OCc3ccccc3)[C@H](C)OC2=O)c1OC(C)=O [Compound F77] | 80 to 100
16 | COc1ccnc(C(=O)N[C@H]2CCC[C@H](CCSC)[C@@H](OCC(C)C)[C@H](C)OC2=O)c1O [Compound F46] | 80 to 100
17 | COc1ccnc(C(=O)N[C@H]2CCC[C@H](CC3CCCC3)[C@@H](Oc3ccccc3)[C@H](C)OC2=O)c1O [Compound F27] | 80 to 100
18 | COc1ccnc(C(=O)N[C@H]2CCC[C@H](Cc3ccccc3)[C@@H](OC3CCCC3)[C@H](C)OC2=O)c1O [Compound F22] | 80 to 100
19 | COc1ccnc(C(=O)N[C@H]2CCC[C@H](CCOCC3CC3)[C@@H](OCC3CC3)[C@H](C)OC2=O)c1OCOC(=O)C(C)C [Compound F156] | 0 to 80
20 | CC[C@H]1CCC[C@H](NC(=O)c2nccc(OC)c2OCOC(C)=O)C(=O)O[C@@H](C)[C@@H]1Oc1ccccc1 [Compound F136] | 80 to 100
21 | COc1ccnc(C(=O)N[C@H]2CCC[C@H](CCC(C)C)[C@@H](OCC(C)C)[C@H](C)OC2=O)c1OCOC(=O)C(C)C [Compound F148] | 80 to 100
22 | COc1ccnc(C(=O)N[C@H]2CCC[C@H](CCC(C)C)[C@@H](OC(=O)C3CCCC3)[C@H](C)OC2=O)c1O [Compound F8] | 80 to 100

Same assay, conditions: Zymoseptoria tritici, 72 h, 3 Day Curative, rate 121.5 g/H; read-out: SEPTTR 3 DC disease control

Row | Compound | pest or weed control at 121.5 g/ha [%]
23 | COc1ccnc(C(=O)N[C@H]2CCC[C@H](C)[C@@H](OCc3ccccc3)[C@H](C)OC2=O)c1OC(C)=O [Compound F77] | 80 to 100
24 | COc1ccnc(C(=O)N[C@H]2CCC[C@H](CCOCC3CC3)[C@@H](OCC3CC3)[C@H](C)OC2=O)c1OC(C)=O [Compound F83] | 0 to 80
25 | COc1ccnc(C(=O)N[C@H]2CCC[C@H](CCOCC3CC3)[C@@H](OCC3CC3)[C@H](C)OC2=O)c1OCOC(=O)C(C)C [Compound F156] | 0 to 80
26 | CC[C@H]1CCC[C@H](NC(=O)c2nccc(OC)c2OCOC(C)=O)C(=O)O[C@@H](C)[C@@H]1Oc1ccccc1 [Compound F136] | 80 to 100
27 | COc1ccnc(C(=O)N[C@H]2CCC[C@H](CCC(C)C)[C@@H](OCC(C)C)[C@H](C)OC2=O)c1OCOC(=O)C(C)C [Compound F148] | 80 to 100

Each compound was assayed on Puccinia triticina; Synonym: Puccinia recondite f. Sp. Tritici (assay: Wheat Brown Rust (PUCCRT) disease control). Details: Puccinia triticina, topical, 24 h, 1 Day Protectant, rate 100 ppm; read-out: PUCCRT 1 DP disease control.
Assay type: in vivo
Description: as §1, with “plants. Wheat plants (variety Yuma) were grown from seed in a greenhouse in 50% mineral soil/50% soil-less Metro mix until the first leaf was fully emerged, with 7-10 seedlings per pot. These plants were inoculated with an aqueous spore suspension of Puccinia triticina either prior to or after fungicide treatments. After inoculation the plants were kept in a dark dew room at 22° C. with 100% relative humidity overnight to permit spores to germinate and infect the leaf. The plants were then transferred to a greenhouse set at 24° C. for disease to develop. Fungicide formulation, application and disease assessment followed the procedures as described in the Example A.” for “plants.”

Row | Compound | pest or weed control at 100 ppm [%]
28 | COc1ccnc(C(=O)N[C@H]2CCC[C@H](C)[C@@H](OCc3ccccc3)[C@H](C)OC2=O)c1OC(C)=O [Compound F77] | 80 to 100
29 | COc1ccnc(C(=O)N[C@H]2CCC[C@H](CCSC)[C@@H](OCC(C)C)[C@H](C)OC2=O)c1O [Compound F46] | 80 to 100
30 | COc1ccnc(C(=O)N[C@H]2CCC[C@H](CC3CCCC3)[C@@H](Oc3ccccc3)[C@H](C)OC2=O)c1O [Compound F27] | 80 to 100
31 | COc1ccnc(C(=O)N[C@H]2CCC[C@H](Cc3ccccc3)[C@@H](OC3CCCC3)[C@H](C)OC2=O)c1O [Compound F22] | 80 to 100
32 | COc1ccnc(C(=O)N[C@H]2CCC[C@H](CCOCC3CC3)[C@@H](OCC3CC3)[C@H](C)OC2=O)c1OC(C)=O [Compound F83] | 80 to 100
33 | COc1ccnc(C(=O)N[C@H]2CCC[C@H](CCOCC3CC3)[C@@H](OCC3CC3)[C@H](C)OC2=O)c1OCOC(=O)C(C)C [Compound F156] | 80 to 100
34 | CC[C@H]1CCC[C@H](NC(=O)c2nccc(OC)c2OCOC(C)=O)C(=O)O[C@@H](C)[C@@H]1Oc1ccccc1 [Compound F136] | 80 to 100
35 | COc1ccnc(C(=O)N[C@H]2CCC[C@H](CCC(C)C)[C@@H](OCC(C)C)[C@H](C)OC2=O)c1OCOC(=O)C(C)C [Compound F148] | 80 to 100
36 | COc1ccnc(C(=O)N[C@H]2CCC[C@H](CCC(C)C)[C@@H](OC(=O)C3CCCC3)[C@H](C)OC2=O)c1O [Compound F8] | 80 to 100

Same assay, conditions: Puccinia triticina, topical, 24 h, 1 Day Protectant, rate 121.5 g/H; read-out: PUCCRT 1 DP disease control

Row | Compound | pest or weed control at 121.5 g/ha [%]
37 | COc1ccnc(C(=O)N[C@H]2CCC[C@H](C)[C@@H](OCc3ccccc3)[C@H](C)OC2=O)c1OC(C)=O [Compound F77] | 80 to 100
38 | COc1ccnc(C(=O)N[C@H]2CCC[C@H](CCOCC3CC3)[C@@H](OCC3CC3)[C@H](C)OC2=O)c1OC(C)=O [Compound F83] | 80 to 100
39 | COc1ccnc(C(=O)N[C@H]2CCC[C@H](CCOCC3CC3)[C@@H](OCC3CC3)[C@H](C)OC2=O)c1OCOC(=O)C(C)C [Compound F156] | 80 to 100
40 | CC[C@H]1CCC[C@H](NC(=O)c2nccc(OC)c2OCOC(C)=O)C(=O)O[C@@H](C)[C@@H]1Oc1ccccc1 [Compound F136] | 80 to 100
41 | COc1ccnc(C(=O)N[C@H]2CCC[C@H](CCC(C)C)[C@@H](OCC(C)C)[C@H](C)OC2=O)c1OCOC(=O)C(C)C [Compound F148] | 80 to 100

Same assay, conditions: Puccinia triticina, topical, 72 h, 3 Day Curative, rate 100 ppm; read-out: PUCCRT 3 DC disease control

Row | Compound | pest or weed control at 100 ppm [%]
42 | COc1ccnc(C(=O)N[C@H]2CCC[C@H](C)[C@@H](OCc3ccccc3)[C@H](C)OC2=O)c1OC(C)=O [Compound F77] | 80 to 100
43 | COc1ccnc(C(=O)N[C@H]2CCC[C@H](CCSC)[C@@H](OCC(C)C)[C@H](C)OC2=O)c1O [Compound F46] | 80 to 100
44 | COc1ccnc(C(=O)N[C@H]2CCC[C@H](CC3CCCC3)[C@@H](Oc3ccccc3)[C@H](C)OC2=O)c1O [Compound F27] | 80 to 100
45 | COc1ccnc(C(=O)N[C@H]2CCC[C@H](Cc3ccccc3)[C@@H](OC3CCCC3)[C@H](C)OC2=O)c1O [Compound F22] | 80 to 100
46 | COc1ccnc(C(=O)N[C@H]2CCC[C@H](CCOCC3CC3)[C@@H](OCC3CC3)[C@H](C)OC2=O)c1OC(C)=O [Compound F83] | 80 to 100
47 | COc1ccnc(C(=O)N[C@H]2CCC[C@H](CCOCC3CC3)[C@@H](OCC3CC3)[C@H](C)OC2=O)c1OCOC(=O)C(C)C [Compound F156] | 80 to 100
48 | CC[C@H]1CCC[C@H](NC(=O)c2nccc(OC)c2OCOC(C)=O)C(=O)O[C@@H](C)[C@@H]1Oc1ccccc1 [Compound F136] | 80 to 100
49 | COc1ccnc(C(=O)N[C@H]2CCC[C@H](CCC(C)C)[C@@H](OCC(C)C)[C@H](C)OC2=O)c1OCOC(=O)C(C)C [Compound F148] | 80 to 100
50 | COc1ccnc(C(=O)N[C@H]2CCC[C@H](CCC(C)C)[C@@H](OC(=O)C3CCCC3)[C@H](C)OC2=O)c1O [Compound F8] | 80 to 100

Same assay, conditions: Puccinia triticina, topical, 72 h, 3 Day Curative, rate 121.5 g/H; read-out: PUCCRT 3 DC disease control

Row | Compound | pest or weed control at 121.5 g/ha [%]
51 | COc1ccnc(C(=O)N[C@H]2CCC[C@H](C)[C@@H](OCc3ccccc3)[C@H](C)OC2=O)c1OC(C)=O [Compound F77] | 80 to 100
52 | COc1ccnc(C(=O)N[C@H]2CCC[C@H](CCOCC3CC3)[C@@H](OCC3CC3)[C@H](C)OC2=O)c1OC(C)=O [Compound F83] | 80 to 100
53 | COc1ccnc(C(=O)N[C@H]2CCC[C@H](CCOCC3CC3)[C@@H](OCC3CC3)[C@H](C)OC2=O)c1OCOC(=O)C(C)C [Compound F156] | 80 to 100
54 | CC[C@H]1CCC[C@H](NC(=O)c2nccc(OC)c2OCOC(C)=O)C(=O)O[C@@H](C)[C@@H]1Oc1ccccc1 [Compound F136] | 80 to 100
55 | COc1ccnc(C(=O)N[C@H]2CCC[C@H](CCC(C)C)[C@@H](OCC(C)C)[C@H](C)OC2=O)c1OCOC(=O)C(C)C [Compound F148] | 80 to 100
